Laboratory results from US9833497B2, “Human originated EGF domain proteins and use of the same” (CHENGDU SOURCEBIO LIMITED-LIABILITY COMPANY, priority 2013, dated 2017).

What was measured:
Assay type in all cases: cell-based
[1] = tested on: Enterobacter cloacae; assay: MIC against Gram-negative bacteria: Enterobacter cloacae; conditions: for MIC (μg/mL) E. cloacae / MIC E. cloacae: 5×10^5 CFU/mL
In short: (§1)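 The recombinant human-originated EGF domain proteins were serially diluted two-fold against bacteria at 5×10^5 CFU/mL in LB medium. After shaken incubation at 37° C, the lowest concentration with no bacterial growth was recorded as the MIC.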

[2] = tested on: Serratia marcescens; assay: MIC against Gram-negative bacteria: Serratia marcescens; conditions: for MIC (μg/mL) S. marcescens / MIC S. marcescens: 5×10^5 CFU/mL
In short: as §1

[3] = tested on: Pseudomonas aeruginosa; assay: MIC against Gram-negative bacteria: Pseudomonas aeruginosa; conditions: for MIC (μg/mL) P. aeruginosa / MIC P. aeruginosa: 5×10^5 CFU/mL
In short: as §1

[4] = tested on: Moraxella catarrhalis; assay: MIC against Gram-negative bacteria: Moraxella catarrhalis; conditions: for MIC (μg/mL) M. catarrhalis / MIC M. catarrhalis: 5×10^5 CFU/mL
In short: as §1

[5] = tested on: E. coli BL21; assay: MIC against Gram-negative bacteria: E. coli BL21; conditions: for MIC (μg/mL) E. coli BL21 / MIC E. coli BL21: 5×10^5 CFU/mL
In short: as §1

[6] = tested on: Citrobacter diversus; assay: MIC against Gram-negative bacteria: Citrobacter diversus; conditions: for MIC (μg/mL) C. diversus / MIC C. diversus: 5×10^5 CFU/mL
In short: as §1

[7] = tested on: Proteus vulgaris; assay: MIC against Gram-negative bacteria: Proteus vulgaris; conditions: for MIC (μg/mL) P. vulgaris / MIC P. vulgaris: 5×10^5 CFU/mL
In short: as §1

[8] = tested on: Klebsiella pneumonia; assay: MIC against Gram-negative bacteria: Klebsiella pneumonia; conditions: for MIC (μg/mL) K. pneumonia / MIC K. pneumonia: 5×10^5 CFU/mL
In short: as §1

[9] = tested on: Proteus mirabilis; assay: MIC against Gram-negative bacteria: Proteus mirabilis; conditions: for MIC (μg/mL) P. mirabilis / MIC P. mirabilis: 5×10^5 CFU/mL
In short: as §1

[10] = tested on: E. coli DH5α; assay: Antibacterial activity: MIC and growth curve against E. coli DH5α in 96-well plate; conditions: minimal inhibitory concentration against E. coli DH5α; 96-well plate, 5×10^5 CFU/mL, 37° C., judged after 8 h
In short: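 Log-phase bacteria (OD600 ~0.5) resuspended in LB at 5×10^5 CFU/mL, exposed to recombinant protein at 50, 25, 12.5 μg/mL final in triplicate, 37 °C shaking at 175 rpm. OD600 read every 30 min; MIC is lowest concentration showing no growth.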

[11] = tested on: Aeromonas hydrophila; assay: MIC against Gram-negative bacteria: Aeromonas hydrophila; conditions: for MIC (μg/mL) A. hydrophila / MIC A. hydrophila: 5×10^5 CFU/mL
In short: as §1

[12] = E. cloacae, 10 h cultivation at 37° C.
[13] = S. marcescens, 10 h cultivation at 37° C.
[14] = P. aeruginosa, 10 h cultivation at 37° C.
[15] = M. catarrhalis, 10 h cultivation at 37° C.
[16] = E. coli BL21, 10 h cultivation at 37° C.
[17] = C. diversus, 10 h cultivation at 37° C.
[18] = P. vulgaris, 10 h cultivation at 37° C.
[19] = K. pneumonia, 10 h cultivation at 37° C.
[20] = P. mirabilis, 10 h cultivation at 37° C.
[21] = A. hydrophila, 10 h cultivation at 37° C.
[22] = 10 h cultivation at 37° C., two-fold serial dilution

PRT200 (NFSTCLSSKEGTICSGNGVCSNELKCVCNRHWIGSDCN; listed as Homo sapiens)
50 µg/mL: MIC (μg/mL) P. aeruginosa [3, 14] | MIC (μg/mL) C. diversus [6, 17] | MIC (μg/mL) P. vulgaris [7, 18]
12.5 µg/mL: MIC (μg/mL) E. cloacae [1, 12] | MIC (μg/mL) S. marcescens [2, 13] | MIC (μg/mL) P. mirabilis [9, 20] | MIC [10]
25 µg/mL: MIC (μg/mL) M. catarrhalis [4, 15] | MIC (μg/mL) E. coli BL21 [5, 16] | MIC (μg/mL) K. pneumonia [8, 19] | MIC (μg/mL) A. hydrophila [11, 21]

PRT251 (FSHLCLEDHNSYCINGACAFHHELEKAICRCFTGYTGERCE; listed as Homo sapiens)
12.5 µg/mL: MIC (μg/mL) S. marcescens [2, 13] | MIC (μg/mL) M. catarrhalis [4, 15] | MIC (μg/mL) E. coli BL21 [5, 16] | MIC (μg/mL) P. vulgaris [7, 18] | MIC (μg/mL) K. pneumonia [8, 19] | MIC (μg/mL) P. mirabilis [9, 20] | MIC (μg/mL) A. hydrophila [11, 21]
25 µg/mL: MIC (μg/mL) E. cloacae [1, 12] | MIC (μg/mL) P. aeruginosa [3, 14] | MIC (μg/mL) C. diversus [6, 17] | MIC [10]

PRT1029 (PANPCEDGSHTCAPAGQARCVHHGGSTFSCACLPGYAGDGHQCT; listed as Homo sapiens)
12.5 µg/mL: MIC [4, 15] | MIC [5, 16] | MIC [7, 18] | MIC [8, 19] | MIC [10] | MIC [11, 21]
50 µg/mL: MIC [1, 12] | MIC [2, 13] | MIC [3, 14] | MIC [6, 17] | MIC [9, 20]

PRT108 (VKDHCSKHSPCQKGGTCVNMPSGPHCLCPQHLTGNHCQ; listed as Homo sapiens)
25 µg/mL: MIC (μg/mL) E. cloacae ([1]; Enterobacter cloacae, 96-well plate, 37° C., 10 h) | MIC (μg/mL) P. aeruginosa ([3]; Pseudomonas aeruginosa, 96-well plate, 37° C., 10 h) | MIC (μg/mL) C. diversus ([6]; Citrobacter diversus, 96-well plate, 37° C., 10 h)
50 µg/mL: MIC (μg/mL) M. catarrhalis ([4]; Moraxella catarrhalis, 96-well plate, 37° C., 10 h) | MIC (μg/mL) K. pneumonia ([8]; Klebsiella pneumonia, 96-well plate, 37° C., 10 h) | MIC [10]
12.5 µg/mL: MIC (μg/mL) S. marcescens ([2]; Serratia marcescens, 96-well plate, 37° C., 10 h) | MIC (μg/mL) E. coli BL21 ([5]; E. coli BL21, 96-well plate, 37° C., 10 h) | MIC (μg/mL) P. vulgaris ([7]; Proteus vulgaris, 96-well plate, 37° C., 10 h) | MIC (μg/mL) P. mirabilis ([9]; Proteus mirabilis, 96-well plate, 37° C., 10 h) | MIC (μg/mL) A. hydrophila ([11]; Aeromonas hydrophila, 96-well plate, 37° C., 10 h)

PRT709 (SCQLCDGYCYNGGTCQLDPETNVPVCLCSTNWSGTQCE; listed as Homo sapiens)
25 µg/mL: MIC K. pneumonia ([8]; 96-well plate, 37° C., 10 h) | MIC P. mirabilis ([9]; 96-well plate, 37° C., 10 h)
50 µg/mL: MIC S. marcescens ([2]; 96-well plate, 37° C., 10 h) | MIC P. aeruginosa ([3]; 96-well plate, 37° C., 10 h) | MIC M. catarrhalis ([4]; 96-well plate, 37° C., 10 h) | MIC [10] | MIC A. hydrophila ([11]; 96-well plate, 37° C., 10 h)
12.5 µg/mL: MIC E. cloacae ([1]; 96-well plate, 37° C., 10 h) | MIC E. coli BL21 ([5]; 96-well plate, 37° C., 10 h) | MIC C. diversus ([6]; 96-well plate, 37° C., 10 h) | MIC P. vulgaris ([7]; 96-well plate, 37° C., 10 h)

PRT1063 (ELSPCRINNGGCQDLCLLTHQGHVNCSCRGGRILQDDLTCR; listed as Homo sapiens)
25 µg/mL: MIC E. coli BL21 [5, 22] | MIC P. vulgaris [7, 22] | MIC K. pneumonia [8, 22] | MIC P. mirabilis [9, 22]
50 µg/mL: MIC P. aeruginosa [3, 22] | MIC M. catarrhalis [4, 22] | MIC A. hydrophila [11, 22]
12.5 µg/mL: MIC E. cloacae [1, 22] | MIC S. marcescens [2, 22] | MIC C. diversus [6, 22] | MIC [10]
